Results from patent US6706716B2, “Compounds specific for the human α1d adrenergic receptor and uses thereof” (Synaptic Pharmaceutical Corporation, priority 1998, dated 2004).

Molecular target: T1, α1B adrenoceptor (Rattus norvegicus, UniProt P15823)
T1 construct: from tissue; host or cells: rat splenic preparations
T1 sequence (P15823 1-515): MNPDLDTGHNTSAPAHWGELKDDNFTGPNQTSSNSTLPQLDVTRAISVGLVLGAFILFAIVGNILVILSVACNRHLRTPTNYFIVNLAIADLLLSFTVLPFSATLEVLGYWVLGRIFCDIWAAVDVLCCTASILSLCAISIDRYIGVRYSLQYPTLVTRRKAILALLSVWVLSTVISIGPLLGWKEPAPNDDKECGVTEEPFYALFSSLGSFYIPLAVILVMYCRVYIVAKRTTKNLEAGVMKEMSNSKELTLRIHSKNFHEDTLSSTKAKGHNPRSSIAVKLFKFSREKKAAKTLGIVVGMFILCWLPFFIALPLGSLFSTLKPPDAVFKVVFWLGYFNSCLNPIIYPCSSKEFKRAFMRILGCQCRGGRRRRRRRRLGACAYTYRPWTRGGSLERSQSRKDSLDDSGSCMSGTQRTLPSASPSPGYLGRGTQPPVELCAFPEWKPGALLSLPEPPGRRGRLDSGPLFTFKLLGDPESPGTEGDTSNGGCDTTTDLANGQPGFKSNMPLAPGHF
Assay: Isolated tissue functional assay, spleen (phenylephrine induced contraction)
Method: The functional in vitro activity of Compound 7 was characterized in several pharmacologically defined α1 adrenoceptor subtype isolated tissue assays (Aboud et al., 1993). (Rat epididymal vas deferens was used to determine α1A functional responses, spleen was used for α1B responses, and thoracic aorta was used for α1D responses.) Experiments were carried out according to the method of Deng et al., 1996, with minor buffer and tissue setup tension modifications. Krebs additionally contained 0.1 μM desipramine and 10 μM corticosterone to block neuronal and extra neuronal uptake, respectively, and 0.3 μM idazoxan to eliminate α2 mediated responses. Aorta and vas deferens strips were set at 0.5 g resting tension, and the splenic preparations were tensioned to 1 g. All preparations were equilibrated for 1 hr before the addition of drugs.
Additionally, its antagonist potency was determined by its ability to antagonize phenylephrine (PE) induced contraction in each of these preparations. The degree of shift of the PE agonist dose response-curve in the presence of Compound 7 was measured and pKB values were calculated (mean±s.e.m.).

## O=C1CC2(CCCC2)CC(=O)N1CCN1CCN(c2cc(F)c(F)cc2F)CC1 [Compound 7, 8-{2-[4-(2,4,5-Trifluorophenyl)piperazin-1-yl]ethyl}-8-azaspiro[4.5]decane-7,9-dione]
Concentrations up to 10 μM, rat spleen (α1B model)
  agonist activity: failed to produce agonist activity
Rat spleen (α1B), mean±s.e.m., read-out: pKB (antagonism of phenylephrine induced contraction) (converted)
  Kb: 200 nM
Spleen versus aorta
  fold less effective than in the aorta: approximately 60 fold
